Format in all cases: cell-based
Assay [1] has as its system P. aeruginosa. The assay is described as follows: Biofilm growth assay (spreading biofilm on semi-solid agar). Also noted: P. aeruginosa (n=10): unit not given here. To be noted: for P. aeruginosa (n=10): Table 6, inhibitory concentration in the biofilm growth assay, n = number of isolates tested; for IC85: Pseudomonas aeruginosa.
Assay [2] concerns Burkholderia cepacia. The assay is described as follows: Biofilm growth assay, multiple isolates. To be noted: Table 6; inhibitory concentration in the biofilm growth assay; n = number of isolates tested. On the procedure:
(§1) The biofilm growth assay was carried out to measure swarming or biofilm spreading on semi-solid agar media in round plates (for example, 100 × 15 mm), also referred to as Petri dishes. For E. coli, the plates contained LB medium with 0.6% agar and 0.5% glucose. P. aeruginosa plates were made with M8 agar supplemented with 0.2% glucose, 100 µM CaCl2, 1 mM MgSO4, and 0.5% Casamino acids. The agar plates of this assay consisted of 0.4% to 0.7% agar (Bacto or Noble agar), although other media may also be used as described in the literature and known to those skilled in the art. Test compounds at the desired concentration were added to the cooled, autoclaved media. Portions of the media were then poured into the plates (20 mL/plate), and the plates allowed to dry at room temperature for approximately 3 to 4 hours. Alternatively, however, plates may be dried in a laminar flow hood for approximately fifteen to twenty minutes. Overnight cultures were grown in a 37°C shaker in LB (E. coli) or TSB (P. aeruginosa). Plates were inoculated by placing 5 µL of the appropriate overnight culture in the centers of the plates. The plates then were incubated overnight at 37°C. The area of the zone of spreading bacteria was then measured and replicates are averaged. Percent inhibition was calculated as 100 × (area without compound - area with compound)/(area without compound). An active compound was considered that which reduces the area of the spreading biofilm compared to negative controls by greater than or equal to 85%. The values shown in Table 1 are the concentrations of compounds (µg/ml) tested in the biofilm growth assay that reduce the area of the spreading biofilm compared to negative controls by greater than or equal to 85% unless noted differently in Table 1. A > ("greater than" symbol) as used in Table 1 is well understood to those skilled in the art as an indication that the listed concentration was not effective at this concentration.
(§2) Table 6, below, lists the inhibitory concentrations of select compounds and antibiotics in the biofilm growth assay against various gram-negative bacterial biofilms. "N" means the number of isolates of bacteria tested. The biofilm growth assay procedure detailed in Example I, above, was followed. Burkholderia cepacia used media consisting of M9 salts, 100 µM CaCl2, 1 mM MgS04, and 0.7% citrate in 0.4% Noble agar. Salmonella spp. used media consisting of Nutrient Broth with 0.5% glucose in 0.5% Noble agar.

Assay [3] has as its system Salmonella spp. The assay is described as follows: Biofilm growth assay, multiple isolates. To be noted: Table 6; inhibitory concentration in the biofilm growth assay; n = number of isolates tested. Here is the method:
as §1, §2

Assay [4] concerns E. coli. Briefly: Biofilm growth assay (spreading biofilm on semi-solid agar). The arrangement: E. coli (n=10): unit: ug/mL. The settings on record: for E. coli (n=10): Table 6, inhibitory concentration in the biofilm growth assay, n = number of isolates tested; for IC85: Escherichia coli. In outline:
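Spreading (swarming) biofilm on semi-solid agar: E. coli on LB with 0.6% agar and 0.5% glucose; P. aeruginosa on M8 agar with 0.2% glucose, 100 µM CaCl2, 1 mM MgSO4, 0.5% Casamino acids. Compound in medium; 5 µL overnight culture spotted centrally, 37°C overnight. Value: concentration (µg/ml) giving ≥85% reduction in spread area versus negative control.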

The mark [5] stands for this setting: read-out: P. aeruginosa (µg/ml).
Setting [6] is: Table 5, concentration that reduces the area of the spreading biofilm by >= 85%, read-out: P. aeruginosa.
The mark [7] stands for this setting: Table 5, concentration that reduces the area of the spreading biofilm by >= 85%, read-out: E. coli.
[8] abbreviates: Table 1, concentration that reduces the area of the spreading biofilm vs negative controls by >= 85%, > means not effective at this concentration, read-out: P. aeruginosa.
The mark [9] stands for this setting: Table 1, concentration that reduces the area of the spreading biofilm vs negative controls by >= 85%, > means not effective at this concentration, read-out: E. coli.

Values after ≈ are worked out from the molar mass of the structure shown. Where two headings read alike, the source gives them in different places.

For `CC[C@H]1OC(=O)[C@H](C)[C@@H](O[C@H]2C[C@@](C)(OC)[C@@H](O)[C@H](C)O2)[C@H](C)[C@@H](O[C@@H]2O[C@H](C)C[C@H](N(C)C)[C@H]2O)[C@](C)(O)C[C@@H](C)CN(C)[C@H](C)[C@@H](O)[C@]1(C)O` [Azithromycin, azithromycin], the “P. aeruginosa (n=10)” value in assay [1] was greater than 16. In assay [2], this compound came in with an inhibitory concentration greater than 16. For the same compound, the “inhibitory concentration in biofilm growth assay” value in assay [3] is greater than 16.

Turning to `CC(C)(O/N=C(\C(=O)N[C@@H]1C(=O)N2C(C(=O)[O-])=C(C[n+]3ccccc3)CS[C@H]12)c1csc(N)n1)C(=O)O` [Ceftazidime, ceftazidime, reference compound], in assay [1], the “P. aeruginosa (n=10)” value worked out at 4. In assay [4], the “E. coli (n=10)” value is recorded as 0.25. Further, in assay [2], the inhibitory concentration was greater than 8. The “inhibitory concentration in biofilm growth assay” value in assay [3] was 0.5.

`CC1(C)CC[C@]2(c3n[nH]c(O)c3N3CCOCC3)CC[C@]3(C)C(=CCC4[C@@]5(C)Cc6c(n[nH]c6N)C(C)(C)C5CC[C@]43C)C2C1` (stereo partly drawn) [Compound 88, 3-((4aS,6aS,6bR,13aR)-12-Amino-2,2,6a,6b,9,9,13a-heptamethyl-2,3,4,4a,5,6,6a,6b,7,8,8a,9,11,13,13a,13b,14,15b-octadecahydro-1H-chryseno[1,2-f]indazol-4a-yl)-4-morpholino-1H-pyrazol-5-ol]: the IC85 in assay [1] (Table 4, concentration that reduces the area of the spreading biofilm by >= 85%, read-out: P. aeruginosa) was 0.25 µg/mL (≈ 0.405 µM); in assay [4] (Table 4, concentration that reduces the area of the spreading biofilm by >= 85%, read-out: E. coli), 0.5 µg/mL (≈ 0.811 µM).

Turning to `CN1CCN(c2c([C@]34CCC(C)(C)CC3C3=CCC5[C@@]6(C)Cc7c(n[nH]c7N)C(C)(C)C6CC[C@@]5(C)[C@]3(C)CC4)n[nH]c2O)CC1` (stereo partly drawn) [Compound 89, 3-((4aS,6aS,6bR,13aR)-12-Amino-2,2,6a,6b,9,9,13a-heptamethyl-2,3,4,4a,5,6,6a,6b,7,8,8a,9,11,13,13a,13b,14,15b-octadecahydro-1H-chryseno[1,2-f]indazol-4a-yl)-4-(4-methylpiperazin-1-yl)-1H-pyrazol-5-ol], the IC85 in assay [1] (setting [5]) and in assay [4] (read-out: E. coli (µg/ml)) was 1 µg/mL (≈ 1.59 µM) each time.

For `CC1(C)CC[C@]2(c3n[nH]c(O)c3N3CCNCC3)CC[C@]3(C)C(=CCC4[C@@]5(C)Cc6c(n[nH]c6N)C(C)(C)C5CC[C@]43C)C2C1` (stereo partly drawn) [Compound 90, 3-((4aS,6aS,6bR,13aR)-12-Amino-2,2,6a,6b,9,9,13a-heptamethyl-2,3,4,4a,5,6,6a,6b,7,8,8a,9,11,13,13a,13b,14,15b-octadecahydro-1H-chryseno[1,2-f]indazol-4a-yl)-4-(piperazin-1-yl)-1H-pyrazol-5-ol], the IC85 is 0.5 µg/mL (≈ 0.812 µM) in assay [1] (setting [5]) and 1 µg/mL (≈ 1.62 µM) in assay [4] (read-out: E. coli (µg/ml)).

Consider `CC1(C)CC[C@]2(C(=O)Sc3nnc(N)[nH]3)CC[C@]3(C)C(=C(c4cccnc4)CC4[C@@]5(C)Cc6c(n[nH]c6N)C(C)(C)[C@@H]5CC[C@]43C)[C@@H]2C1` (stereo partly drawn) [Compound 91, (4aS,6aS,6bR,8aR,13aR,15bS)-S-5-Amino-4H-1,2,4-triazol-3-yl 12-amino-2,2,6a,6b,9,9,13a-heptamethyl-15-(pyridin-3-yl)-2,3,4,4a,5,6,6a,6b,7,8,8a,9,11,13,13a,13b,14,15b-octadecahydro-1H-chryseno[1,2-f]indazole-4a-carbothioate], for which the IC85 in assay [1] (setting [6]) and in assay [4] (setting [7]) was 1 µg/mL (≈ 1.49 µM) throughout.

For the compound `CC1(C)CC[C@]2(c3n[nH]c(O)c3CCN)CC[C@]3(C)C(=C(c4ccoc4CN4CCOCC4)CC4[C@@]5(C)Cc6c(n[nH]c6N)C(C)(C)[C@@H]5CC[C@]43C)[C@@H]2C1` (stereo partly drawn) [Compound 92, 3-((4aS,6aS,6bR,8aR,13aR,15bS)-12-Amino-2,2,6a,6b,9,9,13a-heptamethyl-15-(2-(morpholinomethyl)furan-3-yl)-2,3,4,4a,5,6,6a,6b,7,8,8a,9,11,13,13a,13b,14,15b-octadecahydro-1H-chryseno[1,2-f]indazol-4a-yl)-4-(2-aminoethyl)-1H-pyrazol-5-ol], the IC85 amounted to 0.5 µg/mL (≈ 0.676 µM) in assay [1] (setting [6]) and 2 µg/mL (≈ 2.7 µM) in assay [4] (setting [7]).

For the compound `CC1(C)CC[C@]2(C(=O)O)CC[C@]3(C)C(=CCC4[C@@]5(C)Cc6c[nH]nc6C(C)(C)C5CC[C@]43C)C2C1` (stereo partly drawn) [D], the IC85 came to 1 µg/mL (≈ 2.09 µM) in assay [1] (setting [8]) and 4 µg/mL (≈ 8.36 µM) in assay [4] (setting [9]).

Take `Cn1cc2c(n1)C(C)(C)C1CC[C@]3(C)C(CC=C4C5CC(C)(C)CC[C@]5(C(=O)O)CC[C@]43C)[C@@]1(C)C2` (stereo partly drawn) [E]: the values for the IC85 in assay [1] (setting [8]) and in assay [4] (setting [9]) were 2 µg/mL (≈ 4.06 µM) and greater than 16 µg/mL, respectively.

For the compound `CC1(C)CC[C@]2(C(=O)O)CC[C@]3(C)C(=CCC4[C@@]5(C)Cc6c(n[nH]c6Br)C(C)(C)C5CC[C@]43C)C2C1` (stereo partly drawn) [H], the results for the IC85 in assay [1] (setting [8]) and in assay [4] (setting [9]) were 8 µg/mL (≈ 14.3 µM) and greater than 8 µg/mL, respectively.

Turning to `CC1(C)CC[C@]2(C(=O)O)CC[C@]3(C)C(=CC[C@@H]4[C@@]5(C)Cc6c(noc6N)C(C)(C)[C@@H]5CC[C@]43C)[C@@H]2C1` [K], the IC85 in assay [1] (setting [8]) and in assay [4] (setting [9]) was greater than 8 µg/mL in each case.

Regarding `CC1(C)CC[C@]2(C(=O)O)CC[C@]3(C)[C@H](C(=O)C=C4[C@@]5(C)C=C(C#N)C(=O)C(C)(C)[C@@H]5CC[C@]43C)[C@@H]2C1` [L], the IC85 in assay [1] (setting [8]) and in assay [4] (setting [9]) was greater than 16 µg/mL throughout.

Turning to `C=C(C)[C@@H]1CC[C@]2(C)CC[C@]3(C)[C@H](CC[C@@H]4[C@@]5(C)CC[C@H](O)C(C)(C)[C@@H]5CC[C@]43C)[C@@H]12` [Lupeol, reference compound], the IC85 in assay [1] (setting [8]) is greater than 16 µg/mL; in assay [4] (setting [9]), greater than 8 µg/mL.

For `COC(=O)[C@]12CCC(C)(C)CC1C1=CCC3[C@@]4(C)CC[C@H](O)C(C)(C)C4CC[C@@]3(C)[C@]1(C)CC2` (stereo partly drawn) [Oleanolic acid methyl ester, reference compound], the IC85 in assay [1] (setting [8]) and in assay [4] (setting [9]) was greater than 16 µg/mL each time.

On to `CC1(C)CC[C@]2(C(=O)O)CC[C@]3(C)C(=CC[C@@H]4[C@@]5(C)CC[C@H](O)C(C)(C)[C@@H]5CC[C@]43C)[C@@H]2C1` [Oleanolic acid, reference compound], for which the figures for the IC85 in assay [1] (setting [8]) and in assay [4] (setting [9]) were 4 µg/mL (≈ 8.76 µM) and greater than 8 µg/mL, respectively. The “P. aeruginosa (n=10)” value in assay [1] came to 8. In addition, in assay [4], the “E. coli (n=10)” value came out at 16. The compound further came in with an inhibitory concentration in assay [2] of 0.5. The “inhibitory concentration in biofilm growth assay” value in assay [3] was greater than 64.

Consider `NC[C@H]1O[C@H](O[C@H]2[C@H](O)[C@@H](O[C@H]3O[C@H](CO)[C@@H](O)[C@H](N)[C@H]3O)[C@H](N)C[C@@H]2N)[C@H](N)C[C@@H]1O` [Tobramycin, tobramcyin, reference compound], for which the “P. aeruginosa (n=10)” value in assay [1] stood at 4. Also, the “E. coli (n=10)” value in assay [4] is 16. The inhibitory concentration in assay [2] was greater than 64. The “inhibitory concentration in biofilm growth assay” value in assay [3] worked out at 8.

In the case of `C[C@H]1[C@H](C)CC[C@]2(C(=O)O)CC[C@]3(C)C(=CC[C@@H]4[C@@]5(C)CC[C@H](O)C(C)(C)[C@@H]5CC[C@]43C)[C@H]12` [Ursolic acid, reference compound], the IC85 in assay [1] (setting [8]) and in assay [4] (setting [9]) was 8 µg/mL (≈ 17.5 µM) throughout.

Consider `C[C@H]1[C@H](C)CC[C@]2(CO)CC[C@]3(C)C(=CC[C@@H]4[C@@]5(C)CC[C@H](O)C(C)(C)[C@@H]5CC[C@]43C)[C@H]12` [Uvaol, reference compound], for which the IC85 is greater than 128 µg/mL in assay [1] (setting [8]) and greater than 8 µg/mL in assay [4] (setting [9]).

These data come from patent publication EP2712863B1, “Novel inhibitors of bacterial biofilms and related methods” (Sequoia Sciences, Inc., priority 2012, dated 2014).
